Measurements reported in ChEMBL document CHEMBL1770049, “Synthesis of novel mast cell-stabilising and anti-allergic 1,2,3,4-tetrahydro-1-naphthalenols and related compounds” (Eur J Med Chem, 2011).
Active and inactive are the calls of the source. No cut-off for these calls is given here.

Legend:
[1] = Antiallergic activity in rat Peritoneal mast cell assessed as inhibition of compound 48/80-induced histamine release; assay type: functional, cell-based
[2] = Antiallergic activity in rat Peritoneal mast cell assessed as inhibition of compound 48/80-induced histamine release at 20 uM; assay type: functional
Rattus norvegicus = test: Antiallergic activity in sensitized rat assessed as inhibition of ovalbumin-induced passive cutaneous anaphylaxis at 3 mg/kg, iv after 30 mins relative to control; assay type: functional; settings: 0.5 h
Mus musculus = test: Antiinflammatory activity in Laca mouse assessed as inhibition of arachidonic acid induced ear oedema at 300 ug/ear; assay type: functional, organism-based
[3] = Antiallergic activity in rat Peritoneal mast cell assessed as inhibition of Con A-induced histamine release; assay type: functional, cell-based
[4] = Antiallergic activity in rat Peritoneal mast cell assessed as inhibition of ionophore A23187-induced histamine release; assay type: functional, cell-based
[5] = Lipophilicity, log P of the compound; assay type: physicochemical; settings: octanol/water

SMILES | IC50 [1] [µM] | inhibition at 20 µM [2] [%] | inhibition in vivo at 3 mg/kg (Rattus norvegicus) [%] | Activity (Mus musculus) | IC50 [3] [µM] | IC50 [4] [µM] | logP [5]
O=C1c2ccccc2CCC1C1=Cc2ccccc2CC1 (stereo not given) | 8 |  |  |  |  |  | 
O=C(O)c1cc(=O)c2c(OCC(O)COc3cccc4oc(C(=O)O)cc(=O)c34)cccc2o1 [CROMOLYN SODIUM] |  | 10 | 87 |  |  |  | 
Cc1ccc(CC2(/C=C/c3ccccc3)CCc3ccccc3C2O)cc1 (stereo not given) | 9.4 |  |  |  |  |  | 
CC(Cc1ccccc1)(C1=Cc2ccccc2C1)C(O)c1ccccc1 (stereo not given) |  | 82 |  | inactive |  |  | 
OC1c2ccccc2CC1(Cc1ccccc1)C1=Cc2ccccc2CC1 (stereo not given) | 7.7 |  | 2 | inactive | 3.6 | 4.7 | 6.3
OC1c2ccccc2CCC1(/C=C/c1ccccc1)Cc1ccccc1 (stereo not given) | 55.3 |  | 44 | inactive |  |  | 6.58
CC(Cc1ccccc1)(C1=Cc2ccccc2CC1)C(O)c1ccccc1 (stereo not given) | 3.3 |  |  | inactive |  |  | 
CC(/C=C/c1ccccc1)(Cc1ccccc1)C(O)c1ccccc1 (stereo not given) | 70.9 |  |  |  |  |  | 
OC1c2ccccc2CCC1(Cc1ccccc1)C1=Cc2ccccc2C1 (stereo not given) | 4.1 |  | -5 | Active | 0.75 | 10 | 6.3
